Assay results published in patent publication US20080063720A1, “Delivery System” (priority 2004, published 2008).

Experiments:
[1] = test system: THP-1 differentiated macrophages; assay: Brefeldin A effect on intranuclear accumulation of quantum dots; assay type: cell-based, human; conditions: Brefeldin A 20 μg/ml for 30 min, washed out before particles were added
Protocol: In the studies referred to in FIGS. 1-10, Human THP-1 monocytes, the transformed epithelial cell lines HT-29, HCT-116 and T cell lymphoma cell line HUT-78 were obtained from the European Collection of Animal Cell Cultures (ECACC, Salisbury, UK). Cells were grown in RPMI 1640 medium supplemented with 10% heat-inactivated fetal bovine serum (FBS), 2 mM L-glutamine/L, 100 μg penicillin/ml and […], and incubated at 37° C. in 5% CO2. To induce monocyte to macrophage differentiation, THP-1 cells were cultured in the presence of 100 ng/ml PMA for 72 h.
Prior to incubation with CdTe particles THP-1 differentiated macrophages were incubated with the Golgi complex disrupter Brefeldin A for 30 min at 20 μg/ml. Following a wash out, green 2.2 nm size CdTe particles were added to the cells.

[2] = test system: human primary macrophage cells; assay: Thapsigargin effect on intranuclear accumulation of quantum dots; assay type: cell-based; conditions: thapsigargin 100 mM for 30 min, washed out before incubation with particles
Protocol: Nuclear import inhibitor thapsigargin ([…]) was added to the cells for 30 min and subsequently washed out with pre-warmed culture medium prior to incubation with 2.2 nm size (green emitting) CdTe particles.

| SMILES | effect on distribution and intranuclear accumulation of 2.2 nm green CdTe particles [1] | effect on intranuclear accumulation of 2.2 nm green CdTe particles [2] |
| --- | --- | --- |
| C[C@H]1CCC/C=C/[C@@H]2C[C@H](O)C[C@H]2[C@H](O)/C=C/C(=O)O1 [brefeldin A, Brefeldin A] | dispersion of quantum dots and partial block of intranuclear accumulation | – |
| C/C=C(/C)C(=O)O[C@H]1C(C)=C2[C@H]([C@@H]1OC(=O)CCCCCCC)[C@@](C)(OC(C)=O)C[C@H](OC(=O)CCC)[C@@]1(O)[C@H]2OC(=O)[C@@]1(C)O [thapsigargin] | – | blockade of intranuclear accumulation |
